Patent publication US9512107B2, “Therapeutically active compositions and their methods of use” (Agios Pharmaceuticals, Inc., priority 2012, dated 2016)

Tests used:
IDH2 R140Q = target: T1, IDH2 R140Q (Homo sapiens, UniProt P48735, R140Q); experiment: IDH2 R140Q enzymatic assay (cofactor depletion, similar format); type: biochemical; conditions: read-out: Enz R140Q
T1 sequence (P48735 40-452 R140Q): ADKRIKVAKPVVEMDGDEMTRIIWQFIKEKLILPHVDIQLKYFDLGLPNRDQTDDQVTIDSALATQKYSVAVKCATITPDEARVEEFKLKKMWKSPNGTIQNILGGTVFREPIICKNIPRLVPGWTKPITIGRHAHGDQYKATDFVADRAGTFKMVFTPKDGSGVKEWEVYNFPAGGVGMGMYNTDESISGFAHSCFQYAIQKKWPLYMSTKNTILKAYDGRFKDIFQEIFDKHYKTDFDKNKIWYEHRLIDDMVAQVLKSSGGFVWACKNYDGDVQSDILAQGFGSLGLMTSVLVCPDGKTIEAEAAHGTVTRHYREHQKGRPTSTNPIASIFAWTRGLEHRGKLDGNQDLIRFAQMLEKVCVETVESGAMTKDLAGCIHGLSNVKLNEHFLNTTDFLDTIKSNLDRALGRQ

[1] = tested on: U87MG pLVX-IDH2 R140Q-neo cells; experiment: U87MG pLVX-IDH2 R140Q-neo cell based assay, 2-HG in media by LC-MS at 48 hours; conditions: Homo sapiens, U-87 MG
Method in brief: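 U87MG cells stably expressing IDH2 R140Q were seeded overnight, then exposed to compound at 0.2% final DMSO at 37 °C, 5% CO2. 2-HG in the medium was quantified by LC-MS at 48 h. Growth inhibition was read by CellTiter-Glo luminescence at 72 h.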

IC50 (IDH2 R140Q) [nM]	IC50 [1] [nM]	Structure (SMILES)
100 to 1000	< 100	CC(C)Nc1nc(Nc2ccnc(F)c2)nc(-c2cccc(Cl)n2)n1 [Compound 384, 6-(6-chloropyridin-2-yl)-N^2-(2-fluoropyridin-4-yl)-N^4-isopropyl-1,3,5-triazine-2,4-diamine]
1000 to 10000	100 to 1000	CC(C)(O)CNc1nc(Nc2ccc(F)nc2)nc(-c2cccc(C(F)(F)F)n2)n1 [Compound 385, 1-(4-(6-fluoropyridin-3-ylamino)-6-(6-(trifluoromethyl)pyridin-2-yl)-1,3,5-triazin-2-ylamino)-2-methylpropan-2-ol]
< 100	< 100	CC(C)Nc1nc(Nc2ccc(F)nc2)nc(-c2ccccc2F)n1 [Compound 387, 6-(2-fluorophenyl)-N^2-(6-fluoropyridin-3-yl)-N^4-isopropyl-1,3,5-triazine-2,4-diamine]
1000 to 10000	100 to 1000	CC(C)(O)CNc1nc(Nc2ccc(F)nc2)nc(-c2cccc(Cl)n2)n1 [Compound 388, 1-(4-(6-chloropyridin-2-yl)-6-(6-fluoropyridin-3-ylamino)-1,3,5-triazin-2-ylamino)-2-methylpropan-2-ol]
1000 to 10000	< 100	CC(O)CNc1nc(Nc2ccnc(C(F)(F)F)c2)nc(-c2cccc(Cl)n2)n1 (stereo not drawn) [Compound 389, 1-(4-(6-chloropyridin-2-yl)-6-(2-(trifluoromethyl)pyridin-4-ylamino)-1,3,5-triazin-2-ylamino)propan-2-ol]
1000 to 10000	100 to 1000	CC(C)(O)CNc1nc(Nc2cncc(F)c2)nc(-c2cccc(Cl)n2)n1 [Compound 390, 1-(4-(6-chloropyridin-2-yl)-6-(5-fluoropyridin-3-ylamino)-1,3,5-triazin-2-ylamino)-2-methylpropan-2-ol]
100 to 1000	< 100	CC(C)(O)CNc1nc(Nc2ccnc(C(F)(F)F)c2)nc(-c2cccc(Cl)n2)n1 [Compound 391, 1-(4-(6-chloropyridin-2-yl)-6-(2-(trifluoromethyl)pyridin-4-ylamino)-1,3,5-triazin-2-ylamino)-2-methylpropan-2-ol]
100 to 1000	< 100	CC(C)(O)CNc1nc(Nc2cncc(C(F)(F)F)c2)nc(-c2ccccc2F)n1 [Compound 392, 1-(4-(2-fluorophenyl)-6-(5-(trifluoromethyl)pyridin-3-ylamino)-1,3,5-triazin-2-ylamino)-2-methylpropan-2-ol]
100 to 1000	< 100	Fc1cc(Nc2nc(NC3COC3)nc(-c3cccc(Cl)n3)n2)ccn1 [Compound 393, 6-(6-chloropyridin-2-yl)-N^2-(2-fluoropyridin-4-yl)-N^4-(oxetan-3-yl)-1,3,5-triazine-2,4-diamine]
< 100	< 100	CC(C)Nc1nc(Nc2cncc(C(F)(F)F)c2)nc(-c2cccc(Cl)n2)n1 [Compound 394, 6-(6-chloropyridin-2-yl)-N^2-isopropyl-N4-(5-(trifluoromethyl)pyridin-3-yl)-1,3,5-triazine-2,4-diamine]
100 to 1000	< 100	CC(C)Nc1nc(Nc2cccc(S(C)(=O)=O)c2)nc(-c2cccc(C(C)(F)F)n2)n1 [Compound 395, 6-(6-(1,1-difluoroethyl)pyridin-2-yl)-N^2-isopropyl-N^4-(3-(methylsulfonyl)phenyl)-1,3,5-triazine-2,4-diamine]
100 to 1000	< 100	CC(C)Nc1nc(Nc2ccnc(C(F)(F)F)c2)nc(-c2cccc(Cl)n2)n1 [Compound 396, 6-(6-chloropyridin-2-yl)-N^2-isopropyl-N4-(2-(trifluoromethyl)pyridin-4-yl)-1,3,5-triazine-2,4-diamine]
100 to 1000	100 to 1000	CC(C)Nc1nc(Nc2cccc(S(C)(=O)=O)c2)nc(-c2cccc(C3CC3)n2)n1 [Compound 397, 6-(6-cyclopropylpyridin-2-yl)-N^2-isopropyl-N^4-(3-(methylsulfonyl)phenyl)-1,3,5-triazine-2,4-diamine]
< 100	< 100	CC(C)Nc1nc(Nc2cc(F)cc(F)c2)nc(-c2cccc(N)n2)n1 [Compound 398, 6-(6-aminopyridin-2-yl)-N^2-(3,5-difluorophenyl)-N^4-isopropyl-1,3,5-triazine-2,4-diamine]
100 to 1000	< 100	CC(C)CNc1nc(Nc2cncc(F)c2)nc(-c2cccc(Cl)n2)n1 [Compound 399, 6-(6-chloropyridin-2-yl)-N^2-(5-fluoropyridin-3-yl)-N^4-isobutyl-1,3,5-triazine-2,4-diamine]
100 to 1000	< 100	CC(C)Nc1nc(Nc2cccc(S(=O)(=O)N3CCC3)c2)nc(-c2cccc(Cl)n2)n1 [Compound 400, N^2-(3-(azetidin-1-ylsulfonyl)phenyl)-6-(6-chloropyridin-2-yl)-N^4-isopropyl-1,3,5-triazine-2,4-diamine]
100 to 1000	< 100	CC(C)Nc1nc(Nc2cncc(C#N)c2)nc(-c2cccc(C(F)(F)F)n2)n1 [Compound 401, 5-(4-(isopropylamino)-6-(6-(trifluoromethyl)pyridin-2-yl)-1,3,5-triazin-2-ylamino)nicotinonitrile]
100 to 1000	< 100	Fc1cc(Nc2nc(NCC3CCCO3)nc(-c3cccc(C(F)(F)F)n3)n2)ccn1 (stereo not drawn) [Compound 402, N^2-(2-fluoropyridin-4-yl)-N^4-((tetrahydrofuran-2-yl)methyl)-6-(6-(trifluoromethyl)pyridin-2-yl)-1,3,5-triazine-2,4-diamine]
100 to 1000	< 100	N#Cc1cc(Nc2nc(NCC3CCCO3)nc(-c3cccc(C(F)(F)F)n3)n2)ccn1 (stereo not drawn) [Compound 403, 4-(4-((tetrahydrofuran-2-yl)methylamino)-6-(6-(trifluoromethyl)pyridin-2-yl)-1,3,5-triazin-2-ylamino)picolinonitrile]
100 to 1000	< 100	CC(C)Nc1nc(Nc2ccnc(C#N)c2)nc(-c2cccc(C(F)(F)F)n2)n1 [Compound 404, 4-(4-(isopropylamino)-6-(6-(trifluoromethyl)pyridin-2-yl)-1,3,5-triazin-2-ylamino)picolinonitrile]
100 to 1000	< 100	CC(C)(O)CNc1nc(Nc2cncc(C(F)(F)F)c2)nc(-c2cccc(C(F)(F)F)n2)n1 [Compound 406, 2-methyl-1-(4-(6-(trifluoromethyl)pyridin-2-yl)-6-(5-(trifluoromethyl)pyridin-3-ylamino)-1,3,5-triazin-2-ylamino)propan-2-ol]
100 to 1000	100 to 1000	CC(C)(O)CNc1nc(Nc2cncc(F)c2)nc(-c2cccc(C(F)(F)F)n2)n1 [Compound 407, 1-(4-(5-fluoropyridin-3-ylamino)-6-(6-(trifluoromethyl)pyridin-2-yl)-1,3,5-triazin-2-ylamino)-2-methylpropan-2-ol]
> 10000	100 to 1000	Fc1ccc(Nc2nc(NC3COC3)nc(-c3cccc(Cl)n3)n2)cn1 [Compound 410, 6-(6-chloropyridin-2-yl)-N^2-(6-fluoropyridin-3-yl)-N^4-(oxetan-3-yl)-1,3,5-triazine-2,4-diamine]
1000 to 10000	< 100	Fc1cncc(Nc2nc(NC3C4COCC43)nc(-c3cccc(C(F)(F)F)n3)n2)c1 (stereo not drawn) [Compound 411, N^2-(3-oxabicyclo[3.1.0]hexan-6-yl)-N^4-(5-fluoropyridin-3-yl)-6-(6-(trifluoromethyl)pyridin-2-yl)-1,3,5-triazine-2,4-diamine]
